Key:
[1] = system: UVB-induced sunburn cells and p21 protein in epidermis; assay: UVB-induced formation of sunburn cells and p21 protein levels in epidermis; format: in vivo, SKH-1 mice; conditions: 8 hours after UVB
Procedure: Female Sencar mice (5 mice per group) were treated topically with 100 ul acetone or inhibitor in acetone at 5 min before a single dose of UVB (60 mJ/cm2) irradiation. The mice were killed 8 hours after UVB irradiation, and the skin biopsies were evaluated for sunburn cells and p21 protein.

TPA-induced ear edema = TPA-induced ear edema in mice (ear punch weight); format: in vivo, Female CF-1 mice; conditions: 5 hours; for Wg/punch: mean SE
Procedure: Applicants have postulated that the crossregulin composition of the invention is an optimal composition for protecting and preserving healthy living cells and for preventing cytoskeletons of the healthy living cells from being damaged by TPA and TPA-like tumor promoters. In an experiment conducted in vivo, the ear skin of Female CF-1 mice was treated with either 20 microliters acetone, TPA in acetone or TPA with Tetrahydrocurcuminoids of the invention [THC1], known Tetrahydrocurcuminoids [THC2] and known pure (synthetic) Tetrahydrocurcumin [THC3].
Five hours later the mice were sacrificed and ear punches were weighted (the higher the weight, score the more severe the inflammation of the treated ear-skin). Based on the weight score of the ear punches, the percent of inflammation inhibition was calculated. Protection against inflammation in decreasing order was furnished by THC1 of the invention, followed by THC2 of the prior art, and finally followed by THC3. […] Prior art, as exemplified by the research data, cannot accomplish inhibition of the TPA induced ear edema above 80%. More than 80% inhibition of TPA-induced ear edema is necessary to prevent crosslinking of proteins which could trigger skin cancer. Therefore crossregulin action is not an inherent part of just any composition of THCs, but it is a specific composition that affords inhibition of the TPA mechanism by more than 80%.

[2] = 10 uM topical 5 min before UVB (60 mJ/cm2)
[3] = 20 uM topical 5 min before UVB (60 mJ/cm2)

Compound | % p21 [1, 2] [%] | Number of positive cells per 1 cm slide (p21) [1, 2] | Number of sunburn cells per 1 cm slide [1, 2] | Percent Of Sunburn cells [1, 2] | % p21 [1, 3] [%] | Number of positive cells per 1 cm slide (p21) [1, 3] | Number of sunburn cells per 1 cm slide [1, 3] | Percent Of Sunburn cells [1, 3] | Wg/punch (TPA-induced ear edema; dose 0.36 mg topical with TPA (1 nmol) in acetone on both ears) | % inhibition of TPA-induced ear edema (TPA-induced ear edema; dose 0.36 mg topical with TPA (1 nmol)) [%] | Wg/punch (TPA-induced ear edema; dose 0.12 topical with TPA (1 nmol) in acetone on both ears) | % inhibition of TPA-induced ear edema (TPA-induced ear edema; dose 0.12 topical with TPA (1 nmol)) [%]
O=C(CC(=O)c1ccccc1)c1ccccc1 [DBM, dibenzoylmethane] | 1.2 | 33.5 ± 7.49 | 13.2 ± 5.35 | 1.2 | 2.2 | 60.6 ± 12.9 | 8.6 ± 1.78 | 0.9 | – | – | – | –
COc1cc(CCC(=O)CC(=O)CCc2ccc(O)c(OC)c2)ccc1O [THC3, tetrahydrocurcumin] | – | – | – | – | – | – | – | – | 8.1 ± 0.3 | 77.2 | 7.8 ± 0.3 | 81.0
